The text below walks through data of patent publication US5463078A, “Anisomycin derivatives and anticancer agents, antifungal agents and antiprotozoan agents containing the same” (Ajinomoto Co., Inc., priority 1993, dated 1995).

Each structure is given as a SMILES string. Values after ≈ are worked out from the molar mass of the structure shown. Read-outs that look alike come from different tables or passages of the source.

In one series the test system is Aspergillus fumigatus. Briefly: Antifungal activity: growth inhibition of Aspergillus fumigatus. Type of series: cell-based. To be noted: potato dextrose agar, 25° C., 7 days. Here is the method:
(§1) Experiment 3: Measurement of antifungal activity of anisomycin derivatives
(§2) The growth-inhibiting activity of the present compounds against various fungi was investigated. Into each well of a 6-well microplate, 0.3 ml of a solution of each test compound and 2.7 ml of a sterile solution of potato dextrose agar culture medium (kept at a temperature of about 50° C.) were added. After solidification, 5 μl from each suspension of test cells (yeast: approx. 10^3 cells/ml; mold: approx. 10^4 spores/ml) was inoculated onto the above-mentioned agar medium, and the cultures were maintained at 25° C. for 7 days. The growth of the test cells was observed, and the minimum concentration (MIC value) was determined at which complete inhibition of growth occurred. The test compounds were used after adjustment to 1 mg/ml with dimethylsulfoxide and dilution with distilled water.

A further series can be described thus: Stability in the blood. To be noted: in words.
Another series has as its system protein synthesis. The settings on record: in words; J. Biol. Chem., vol. 242, p. 3226, 1967; cited from earlier work.
Series [1] can be described thus: Measurement of stability of anisomycin derivatives in rat plasma. The format is in vitro ADME. Here is the method:
Experiment 1: Measurement of stability of anisomycin derivatives in rat plasma
To investigate the stability of the present compounds in rat plasma, the half-life thereof was measured. For the measurement, an approximately 0.25 mg portion of each test compound was dissolved in 150 μl of rat plasma, and the solution was incubated at 37° C. Aliquots were taken over specific periods of time, and the amount of residual anisomycin derivative was measured by HPLC to determine the half-life thereof.

For a further series, the system named is Cryptococcus neoformans. The experiment in a line: Antifungal activity: growth inhibition of Cryptococcus neoformans. To be noted: potato dextrose agar, 25° C., 7 days. Type of series: cell-based. As for the experimental part: as §1, §2
Another series has as its system Candida albicans. The experiment in a line: Antifungal activity: growth inhibition of Candida albicans. Type of series: cell-based. The settings on record: potato dextrose agar, 25° C., 7 days. As for the experimental part:
as §1, §2

A further series has as its system Saccharomyces cereviceae. The experiment in a line: Antifungal activity: growth inhibition of Saccharomyces cereviceae. The settings on record: potato dextrose agar, 25° C., 7 days. Type of series: cell-based. Here is the method: as §1, §2
In another series the test system is Mucor rouxii. The experiment in a line: Antifungal activity: growth inhibition of Mucor rouxii. Type of series: cell-based. To be noted: potato dextrose agar, 25° C., 7 days. Here is the method:
as §1, §2

Another series concerns FM3A cells. Briefly: Inhibitory activity on proliferation of FM3A culture. Type of series: cell-based, mouse. To be noted: for IC50: Mus musculus, read-out: IC50 (50% proliferation inhibition concentration). As for the experimental part:
Experiment 2: Measurement of inhibitory activity of anisomycin derivatives on proliferation of FM3A culture
The proliferation-inhibiting activity of the present compounds against a culture of FM3A cells derived from mouse mammary tumor was investigated. Into each well of a 96-well microplate was added 50 μl of 10^5 cells/ml of FM3A cells, which had been suspended in a Dulbecco-modified Eagle culture medium containing 10% fetal calf serum. The IC50 (50% proliferation inhibition concentration) was calculated based on the number of surviving cells for a prescribed concentration of the test compounds.

The subject of series [2] is P388 leukemia tumor cells. Briefly: Antitumor effect of anisomycin derivatives in vivo (P388 leukemia, CDF1 mice). On the set-up: species or system mouse. The settings on record: P388 i.p. in CDF1 mice; 10 mg/kg i.p. once a day for 10 days. Here is the method: Experiment 4: Antitumor effect of anisomycin derivatives in vivo
Into one group of 5 CDF1 mice, 1×10^6 P388 leukemia tumor cells were intraperitoneally transplanted. Beginning the next day, a 10 mg/kg portion of the test compound dissolved in 0.2 ml of a solution containing an equal volume of dimethylsulfoxide and saline was administered to the mice intraperitoneally once a day for 10 days. The increase in the life span of the mice in days (ILS) was determined according to the following equation: [formula]

Setting [3] is: 168 h, read-out: MIC (minimum concentration at which complete inhibition of growth occurred).

As to `COc1ccc(CC2NCC(O)C2OC(C)=O)cc1` (single isomer, unassigned) [Anisomycin, anisomycin], the “MIC (minimum concentration at which complete inhibition of growth occurred)” value against Aspergillus fumigatus is > 100 µg/mL; against Cryptococcus neoformans, 25 µg/mL; in the series with Candida albicans, 100 µg/mL; in the series on Saccharomyces cereviceae, 12.5 µg/mL; against Mucor rouxii, > 100 µg/mL. The “stability in the blood” value in “Stability in the blood” is “extremely unstable in the blood and is rapidly hydrolyzed”. The cytotoxic activity entry in the series with protein synthesis is listed as “strong cytotoxic activity due to its inhibitory effect on protein synthesis”. In [1] (rat plasma, 37° C., residual amount by HPLC, read-out: Half-life), the Half-life turned out to be 0.05 h. Besides, the “IC50 (50% proliferation inhibition concentration)” value in the series with FM3A cells came to 0.02 µg/mL (≈ 0.0754 µM). For the same compound, the “ILS (increase in the life span of the mice)” value in series [2] amounted to 0%.
Consider `CNC(=O)OC1C(O)CNC1Cc1ccc(OC)cc1` (stereo not shown) [Example 1, 3-O-methylcarbamoyl-deacetylanisomycin], for which the Half-life result in [1] was “No decomposition”. For the same compound, in the series with FM3A cells, the IC50 is 0.06 µg/mL (≈ 0.214 µM).
`COc1ccc(CC2NCC(O)C2OC(N)=O)cc1` (stereo not shown) [Example 2, 3-O-carbamoyldeacetylanisomycin]: the Half-life result in series [1] was “No decomposition”.
`COc1ccc(CC2NCC(O)C2OC(=O)NCCCc2ccccc2)cc1` (stereo not shown) [Example 5, 3-O-(3-phenylpropyl)carbamoyldeacetylanisomycin]: the Half-life entry in series [1] is “No decomposition”.
For `COc1ccc(CC2NCC(O)C2OC(=O)Nc2ccccc2)cc1` (stereo not shown) [Example 11, 3-O-phenylcarbamoyldeacetylanisomycin], the Half-life result in [1] is “No decomposition”.
As to `COc1ccc(CC2NCC(OC(C)=O)C2OC(N)=O)cc1` (stereo not shown) [Example 15, 4-O-acetyl-3-O-carbamoylanisomycin], the Half-life in [1] (rat, plasma) is 6.67 h. Also, the IC50 in the series on FM3A cells came to 0.039 µg/mL (≈ 0.126 µM).
For `CCCCCC(=O)OC1CNC(Cc2ccc(OC)cc2)C1OC(N)=O` (stereo not shown) [Example 16, 4-O-hexanoyl-3-O-carbamoyldeacetylanisomycin], the IC50 with FM3A cells amounted to 0.039 µg/mL (≈ 0.107 µM).
Still for that read-out and setting: under `CCCCCCC(=O)OC1CNC(Cc2ccc(OC)cc2)C1OC(N)=O` (stereo not shown) [Example 17, 4-O-heptanoyl-3-O-carbamoyldeacetylanisomycin] stands 0.03 µg/mL (≈ 0.0793 µM).
With `CCCCCCCCCCCC(=O)OC1CNC(Cc2ccc(OC)cc2)C1OC(N)=O` (stereo not shown) [Example 18, 4-O-dodecanoyl-3-O-carbamoyldeacetylanisomycin], the MIC was 50 µg/mL (≈ 111 µM) in the series on Aspergillus fumigatus (setting [3]); 3.1 µg/mL (≈ 6.91 µM) in the series on Cryptococcus neoformans (setting [3]); 50 µg/mL (≈ 111 µM) in the series with Candida albicans (setting [3]); 25 µg/mL (≈ 55.7 µM) with Saccharomyces cereviceae (setting [3]); 50 µg/mL (≈ 111 µM) in the series on Mucor rouxii (Amylomyces rouxii, 168 h, read-out: MIC (minimum concentration at which complete inhibition of growth occurred)). Also, the IC50 in the series with FM3A cells was < 0.02 µg/mL. In addition, in series [2], the “ILS (increase in the life span of the mice)” value is given as 44%.
Regarding `COCOC1C(O)CNC1Cc1ccc(OC)cc1` (stereo not shown) [Example 22, 3-O-methoxymethyldeacetylanisomycin], the Half-life result in [1] is on record as “No decomposition”. The IC50 in the series on FM3A cells was determined as 0.062 µg/mL (≈ 0.232 µM).
